From patent US10273222B2 (CELGENE QUANTICEL RESEARCH, INC., priority 2013, dated 2019)

How the values were obtained:
[1] = target: Jarid1A (Homo sapiens (Human), UniProt P29375); assay: Jarid1A in vitro enzyme inhibition assay (TR-FRET); assay type: biochemical
Description: The enzymatic assay of Jarid1A activity is based upon Time Resolved-Fluorescence Resonance Energy Transfer (TR-FRET) detection.

[2] = target: Jarid1B (Homo sapiens (Human), UniProt Q9UGL1); assay: Jarid1B in vitro enzyme inhibition assay (TR-FRET); assay type: biochemical
[3] = target: JMJD2C (Homo sapiens (Human), UniProt Q9H3R0); assay: JMJD2C in vitro enzyme inhibition assay (TR-FRET); assay type: biochemical
[4] = target: FBXL10 (Homo sapiens (Human), UniProt Q8NHM5); assay: FBXL10 in vitro enzyme inhibition assay (AlphaScreen); assay type: biochemical
In short: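 AlphaScreen read-out of H3K36me1 product, detected with anti-H3K36me1 antibody plus streptavidin donor and Protein A acceptor beads (final 10 μg/ml) in 50 mM HEPES pH 7.3, 10 mM NaCl, 0.005% Brij35, 5 mM EDTA, 2 mg/ml BSA. Beads incubated 2 h to overnight at room temperature; IC50 derived from AlphaScreen signal.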

[5] = tested on: KDM5A and KDM5B; assay: In vitro cell-based assay: tri-methyl H3K4 immuno-blotting in ZR-75-1 cells (cellular inhibition of KDM5A/B); settings: ZR-75-1 breast cancer cells, 72 hours, tri-methylated H3K4 level; read-out: IC50 ZR-75-1 cell-MOA
Description: This quantitative immuno-blotting assay measures the amount tri-methylated histone H3 at amino acid Lysine number 4, a specific substrate and product of the direct enzymatic activity of the histone demethylases KDM5A and KDM5B from extracts of the ZR-75-1 breast cancer cell line.
This assay is a fluorometric immunoassay for the quantification of tri-methyl H3K4 extracted from cells treated with test compound and is used as a measure of the cellular inhibition of KDM5A/B.
Extracts were prepared containing all of the cellular histone material using detergent based lysis and sonication methods. These lysates were subsequently normalized for total protein content using a colorimetric bicinchonic acid assay (MicroBCA Pierce/Thermo Scientific). Normalized cell extracts were then subjected to typical immuno-blotting procedures using NuPage reagents (Life Technologies). Electrophoretically separated histones were then transferred and immobilized using polyvinylidene difluoride membrane (Immobilon-FL Millipore). The amount of tri-methylated lysine 4 of histone H3 was detected using an antibody specific to the tri-methylated state (Cell Signaling Technologies) and quantified on an infrared imager using a densitometry software package (Odyssey CLx, Image Studio, Li-Cor). This background subtracted densitometry value was reported as a ration of the GAPDH amount for that sample and then calculated as a percent of the DMSO treated sample. The software package XL-fit (IDBS) was then used to calculate a relative IC50 value for the dilution series of a given test compound according to the equation: fit=(D+((Vmax*(x^n))/((x^n)+(Km^n)))).

[6] = target: JMJD2A (Homo sapiens (Human), UniProt O75164); assay: JMJD2A in vitro enzyme inhibition assay (TR-FRET); assay type: biochemical
JMJD2A, sequence (O75164 1-350): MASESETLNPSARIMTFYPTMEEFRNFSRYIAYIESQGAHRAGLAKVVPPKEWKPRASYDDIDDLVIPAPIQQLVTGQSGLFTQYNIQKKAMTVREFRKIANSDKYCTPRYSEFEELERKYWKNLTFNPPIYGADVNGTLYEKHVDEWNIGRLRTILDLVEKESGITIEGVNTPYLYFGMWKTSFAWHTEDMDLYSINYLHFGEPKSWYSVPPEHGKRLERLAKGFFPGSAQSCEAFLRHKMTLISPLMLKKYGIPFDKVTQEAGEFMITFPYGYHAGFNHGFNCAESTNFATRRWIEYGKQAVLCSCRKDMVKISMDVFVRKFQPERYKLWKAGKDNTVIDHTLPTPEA
Description: This assay determines the ability of a test compound to inhibit Jarid1A, Jarid1B, JMJD2C, and JMJD2A demethylase activity. […] Baculovirus expressed JMJD2A (GenBank Accession #NM_014663, AA 1-350) was purchased from BPS Bioscience (Cat#50123).
The ability of test compounds to inhibit the activity of JMJD2A was determined in 384-well plate format under the following reaction conditions: 2 nM JMJD2A, 300 nM H3K9me3-biotin labeled peptide (Anaspec cat #64360), 2 μM alpha-ketoglutaric acid in assay buffer of 50 mM HEPES, pH7.3, 0.005% Brij35, 0.5 mM TCEP, 0.2 mg/ml BSA, 50 μM sodium L-ascorbate, and 2 μM ammonium iron(II) sulfate. Reaction product was determined quantitatively by TR-FRET after the addition of detection reagent Phycolink Streptavidin-allophycocyanin (Prozyme) and Europium-anti-di-methylated histone H3 lysine 9 (H3K9me2) antibody (PerkinElmer) in the presence of 5 mM EDTA in LANCE detection buffer (PerkinElmer) at a final concentration of 50 nM and 1 nM, respectively.
The assay reaction was initiated by the following: 2 μl of the mixture of 900 nM H3K9me3-biotin labeled peptide and 6 μM alpha-ketoglutaric acid with 2 μl of 11-point serial diluted inhibitor in 3% DMSO were added to each well of plate, followed by the addition of 2 μl of 6 nM JMJD2A to initiate the reaction. The reaction mixture was incubated at room temperature for 30 minutes, and terminated by the addition of 6 μl of 5 mM EDTA in LANCE detection buffer containing 100 nM Phycolink Streptavidin-allophycocyanin and 2 nM Europium-anti-H3K9me2 antibody. Plates were read by EnVisionMultilabel Reader in TR-FRET mode (excitation at 320 nm, emission at 615 nm and 665 nm) after 1 hour incubation at room temperature. A ratio was calculated (665/615) for each well and fitted to determine inhibition constant (IC50).

FBXL10, sequence (Q8NHM5 1-650): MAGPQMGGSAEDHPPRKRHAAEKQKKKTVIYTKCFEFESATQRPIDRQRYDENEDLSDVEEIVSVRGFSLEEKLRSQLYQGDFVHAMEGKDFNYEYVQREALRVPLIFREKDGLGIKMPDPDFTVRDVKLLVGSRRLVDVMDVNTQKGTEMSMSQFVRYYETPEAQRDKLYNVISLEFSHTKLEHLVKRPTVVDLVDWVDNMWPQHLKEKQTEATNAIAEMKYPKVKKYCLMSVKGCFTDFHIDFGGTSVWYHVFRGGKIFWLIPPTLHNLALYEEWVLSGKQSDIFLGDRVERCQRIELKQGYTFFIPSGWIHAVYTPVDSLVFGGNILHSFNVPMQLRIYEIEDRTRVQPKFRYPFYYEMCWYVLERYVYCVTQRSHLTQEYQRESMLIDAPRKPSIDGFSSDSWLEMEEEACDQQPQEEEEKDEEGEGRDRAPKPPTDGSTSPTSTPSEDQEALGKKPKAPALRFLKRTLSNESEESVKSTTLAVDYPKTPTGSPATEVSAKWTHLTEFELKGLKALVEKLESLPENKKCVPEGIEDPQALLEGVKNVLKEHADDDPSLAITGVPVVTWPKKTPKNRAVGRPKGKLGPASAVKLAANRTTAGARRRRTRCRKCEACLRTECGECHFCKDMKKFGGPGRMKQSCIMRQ
JMJD2C, sequence (Q9H3R0 2-372): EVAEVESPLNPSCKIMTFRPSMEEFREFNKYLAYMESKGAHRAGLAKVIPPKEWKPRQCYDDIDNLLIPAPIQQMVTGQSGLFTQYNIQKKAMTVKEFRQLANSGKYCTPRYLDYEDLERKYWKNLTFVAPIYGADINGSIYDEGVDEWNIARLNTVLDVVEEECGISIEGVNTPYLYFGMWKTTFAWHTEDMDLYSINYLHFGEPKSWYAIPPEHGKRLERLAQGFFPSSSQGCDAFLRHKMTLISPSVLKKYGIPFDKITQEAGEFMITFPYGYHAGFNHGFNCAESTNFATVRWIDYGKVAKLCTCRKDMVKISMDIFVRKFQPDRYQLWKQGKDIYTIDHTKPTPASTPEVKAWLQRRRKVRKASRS
Jarid1B, sequence (Q9UGL1 2-751): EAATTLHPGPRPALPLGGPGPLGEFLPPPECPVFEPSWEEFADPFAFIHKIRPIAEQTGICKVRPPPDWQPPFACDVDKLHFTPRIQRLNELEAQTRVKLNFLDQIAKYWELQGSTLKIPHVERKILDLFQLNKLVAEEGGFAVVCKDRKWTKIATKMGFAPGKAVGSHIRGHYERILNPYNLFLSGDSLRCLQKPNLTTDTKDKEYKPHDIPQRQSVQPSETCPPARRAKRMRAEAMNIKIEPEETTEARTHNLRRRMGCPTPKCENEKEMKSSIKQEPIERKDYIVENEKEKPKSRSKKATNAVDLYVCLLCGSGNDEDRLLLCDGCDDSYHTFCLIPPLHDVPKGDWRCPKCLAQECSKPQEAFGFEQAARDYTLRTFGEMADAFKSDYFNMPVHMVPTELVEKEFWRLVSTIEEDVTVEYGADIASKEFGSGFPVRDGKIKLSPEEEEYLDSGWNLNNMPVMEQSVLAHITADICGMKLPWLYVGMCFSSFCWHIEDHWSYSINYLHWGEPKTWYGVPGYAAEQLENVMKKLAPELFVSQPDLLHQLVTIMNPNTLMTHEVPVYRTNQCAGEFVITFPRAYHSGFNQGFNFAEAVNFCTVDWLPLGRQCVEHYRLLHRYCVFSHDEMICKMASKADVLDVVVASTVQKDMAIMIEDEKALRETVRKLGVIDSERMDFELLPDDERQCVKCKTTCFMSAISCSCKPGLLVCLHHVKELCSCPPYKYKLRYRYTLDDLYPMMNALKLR
Jarid1A, sequence (P29375 1-1090): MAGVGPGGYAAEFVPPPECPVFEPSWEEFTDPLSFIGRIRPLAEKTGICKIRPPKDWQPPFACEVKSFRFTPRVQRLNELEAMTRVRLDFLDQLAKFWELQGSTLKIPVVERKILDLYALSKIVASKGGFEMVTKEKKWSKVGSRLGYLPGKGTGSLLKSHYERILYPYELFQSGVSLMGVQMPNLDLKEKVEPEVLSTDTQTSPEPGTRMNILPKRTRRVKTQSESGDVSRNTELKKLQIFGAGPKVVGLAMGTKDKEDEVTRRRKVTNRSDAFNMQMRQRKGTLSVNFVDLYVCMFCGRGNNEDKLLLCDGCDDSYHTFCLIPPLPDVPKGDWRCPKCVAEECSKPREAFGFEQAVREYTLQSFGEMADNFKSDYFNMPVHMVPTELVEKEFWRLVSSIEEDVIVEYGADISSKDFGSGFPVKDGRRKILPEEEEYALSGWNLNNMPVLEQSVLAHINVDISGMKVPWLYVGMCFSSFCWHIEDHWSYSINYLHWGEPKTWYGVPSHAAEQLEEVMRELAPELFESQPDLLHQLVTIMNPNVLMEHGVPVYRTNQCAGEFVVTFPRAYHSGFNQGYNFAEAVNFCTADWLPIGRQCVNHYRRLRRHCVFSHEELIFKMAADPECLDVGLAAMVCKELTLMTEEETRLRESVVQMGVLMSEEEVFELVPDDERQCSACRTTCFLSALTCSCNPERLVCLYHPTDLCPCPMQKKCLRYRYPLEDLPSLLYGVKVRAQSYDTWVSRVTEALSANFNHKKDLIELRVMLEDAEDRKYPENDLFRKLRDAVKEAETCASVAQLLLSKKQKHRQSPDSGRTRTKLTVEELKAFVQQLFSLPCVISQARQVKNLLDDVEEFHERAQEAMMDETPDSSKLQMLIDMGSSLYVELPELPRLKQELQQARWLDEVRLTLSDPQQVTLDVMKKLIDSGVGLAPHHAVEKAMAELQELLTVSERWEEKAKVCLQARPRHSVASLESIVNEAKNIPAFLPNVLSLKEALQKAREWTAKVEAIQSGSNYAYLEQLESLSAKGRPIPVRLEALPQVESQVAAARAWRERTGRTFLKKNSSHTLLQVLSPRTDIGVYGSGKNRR

Structure (SMILES)	IC50 [1] [nM]	IC50 [2] [nM]	IC50 [3] [nM]	IC50 [4] [nM]	IC50 [5] [nM]	IC50 [6] [nM]
Cc1ccc(-c2c(-c3cc(C(=O)O)ccn3)ncn2C)cc1O [Example 3, 2-[5-(3-hydroxy-4-methylphenyl)-1-methyl-1H-imidazol-4-yl]pyridine-4-carboxylic acid]	≤ 100	≤ 100	1000 to 10000	100 to 1000	> 10000	–
Cn1cnc(-c2cc(C(=O)O)ccn2)c1-c1ccc(C2CC2)cc1 [Example 7, 2-[5-(4-cyclopropylphenyl)-1-methyl-1H-imidazol-4-yl]pyridine-4-carboxylic acid]	≤ 100	≤ 100	1000 to 10000	100 to 1000	> 10000	–
COc1ccc(-c2c(-c3cc(C(=O)O)ccn3)ncn2C)cc1 [Example 12, 2-[5-(4-methoxyphenyl)-1-methyl-1H-imidazol-4-yl]pyridine-4-carboxylic acid]	–	–	–	–	1000 to 10000	–
Cn1cnc(-c2cc(C(=O)O)ccn2)c1-c1ccc(-n2cccn2)cc1 [Example 15, 2-{1-methyl-5-[4-(1H-pyrazol-1-yl)phenyl]-1H-imidazol-4-yl}pyridine-4-carboxylic acid]	≤ 100	≤ 100	100 to 1000	100 to 1000	1000 to 10000	–
Cn1cnc(-c2cc(C(=O)O)ccn2)c1-c1ccc(OCC2CC2)cc1 [Example 16, 2-{5-[4-(cyclopropylmethoxy)phenyl]-1-methyl-1H-imidazol-4-yl}pyridine-4-carboxylic acid]	≤ 100	≤ 100	100 to 1000	100 to 1000	1000 to 10000	–
Cn1cnc(-c2cc(C(=O)O)ccn2)c1-c1ccc(N2CCCC2)cc1 [Example 18, 2-{1-methyl-5-[4-(pyrrolidin-1-yl)phenyl]-1H-imidazol-4-yl}pyridine-4-carboxylic acid]	≤ 100	≤ 100	100 to 1000	–	1000 to 10000	–
Cn1cnc(-c2cc(C(=O)O)ccn2)c1-c1ccc(Cl)cc1 [Example 19, 2-[5-(4-chlorophenyl)-1-methyl-1H-imidazol-4-yl]pyridine-4-carboxylic acid]	≤ 100	≤ 100	100 to 1000	≤ 100	1000 to 10000	–
Cn1cnc(-c2cc(C(=O)O)ccn2)c1-c1cccc(Cl)c1 [Example 20, 2-[5-(3-chlorophenyl)-1-methyl-1H-imidazol-4-yl]pyridine-4-carboxylic acid]	≤ 100	≤ 100	100 to 1000	≤ 100	> 10000	–
Cn1cnc(-c2cc(C(=O)O)ccn2)c1-c1ccc2cc[nH]c2c1 [Example 22, 2-[5-(1H-indol-6-yl)-1-methyl-1H-imidazol-4-yl]pyridine-4-carboxylic acid]	≤ 100	≤ 100	100 to 1000	≤ 100	> 10000	–
Cn1cnc(-c2cc(C(=O)O)ccn2)c1-c1ccc(Cl)c(F)c1 [Example 29, 2-[5-(4-chloro-3-fluorophenyl)-1-methyl-1H-imidazol-4-yl]pyridine-4-carboxylic acid]	≤ 100	≤ 100	100 to 1000	≤ 100	> 10000	–
CCCn1cnc(-c2cc(C(=O)O)ccn2)c1-c1ccc(Cl)c(F)c1 [Example 35, 2-[5-(4-chloro-3-fluorophenyl)-1-propyl-1H-imidazol-4-yl]pyridine-4-carboxylic acid]	≤ 100	≤ 100	100 to 1000	≤ 100	> 10000	–
CN(C)CCn1cnc(-c2cc(C(=O)O)ccn2)c1 [Example 40, 2-{1-[2-(dimethylamino)ethyl]-1H-imidazol-4-yl}pyridine-4-carboxylic acid]	≤ 100	≤ 100	≤ 100	–	1000 to 10000	–
CCCn1cnc(-c2cc(C(=O)O)ccn2)c1 [Example 41, 2-(1-propyl-1H-imidazol-4-yl)pyridine-4-carboxylic acid]	≤ 100	≤ 100	≤ 100	≤ 100	1000 to 10000	–
O=C(O)c1ccnc(-c2cn(CCNCC3CCC(F)(F)CC3)cn2)c1 [Example 72, 2-[1-[2-[(4,4-difluorocyclohexyl)methylamino]ethyl]imidazol-4-yl]pyridine-4-carboxylic acid]	≤ 100	≤ 100	≤ 100	≤ 100	1000 to 10000	–
O=C(O)c1ccnc(-c2cn(CCc3ccc(F)cc3)cn2)c1 [Example 92, 2-[1-[2-(4-fluorophenyl)ethyl]imidazol-4-yl]pyridine-4-carboxylic acid]	≤ 100	≤ 100	≤ 100	≤ 100	1000 to 10000	–
O=C(O)c1ccnc(-c2cn(CCc3ccccc3F)cn2)c1 [Example 93, 2-[1-[2-(2-fluorophenyl)ethyl]imidazol-4-yl]pyridine-4-carboxylic acid]	≤ 100	≤ 100	≤ 100	≤ 100	1000 to 10000	–
O=C(O)c1ccnc(-c2cn(Cc3ccccc3)cn2)c1 [Example 100, 2-(1-benzylimidazol-4-yl)pyridine-4-carboxylic acid]	≤ 100	≤ 100	100 to 1000	≤ 100	1000 to 10000	–
O=C(O)c1ccnc(-c2cn(C3CCc4c(F)cccc43)cn2)c1 (stereo not shown) [Example 110, 2-[1-(4-fluoro-2,3-dihydro-1H-inden-1-yl)imidazol-4-yl]pyridine-4-carboxylic acid]	≤ 100	≤ 100	100 to 1000	≤ 100	–	100 to 1000
O=C(O)c1ccnc(-c2cn(Cc3cccc(-c4ccccc4)c3)cn2)c1 [Example 111, 2-[1-[(3-phenylphenyl)methyl]imidazol-4-yl]pyridine-4-carboxylic acid]	≤ 100	≤ 100	1000 to 10000	≤ 100	–	1000 to 10000
O=C(O)c1ccnc(-c2cn(CCc3cccc4ccccc34)cn2)c1 [Example 112, 2-[1-(2-naphthalen-1-ylethyl)imidazol-4-yl]pyridine-4-carboxylic acid]	≤ 100	≤ 100	100 to 1000	≤ 100	–	100 to 1000
O=C(O)c1ccnc(-c2cn(CC3CCCc4ccccc43)cn2)c1 (stereo not shown) [Example 116, 2-[1-(1,2,3,4-tetrahydronaphthalen-1-ylmethyl)imidazol-4-yl]pyridine-4-carboxylic acid]	≤ 100	≤ 100	100 to 1000	≤ 100	–	≤ 100
Cn1cnc(-c2cc(C(=O)O)ccn2)c1-c1ccc(F)cc1OCC1CC1 [Example 120, 2-[5-[2-(cyclopropylmethoxy)-4-fluorophenyl]-1-methylimidazol-4-yl]pyridine-4-carboxylic acid]	100 to 1000	≤ 100	1000 to 10000	≤ 100	–	> 10000
Clc1ccccc1Cn1cnc(-c2cc(-c3nn[nH]n3)ccn2)c1 [Example 129, 2-[1-[(2-chlorophenyl)methyl]imidazol-4-yl]-4-(2H-tetrazol-5-yl)pyridine]	100 to 1000	≤ 100	1000 to 10000	≤ 100	–	> 10000
FC(F)(F)c1ccccc1CCn1cnc(-c2cc(-c3nn[nH]n3)ccn2)c1 [Example 140, 4-(2H-tetrazol-5-yl)-2-[1-[2-[2-(trifluoromethyl)phenyl]ethyl]imidazol-4-yl]pyridine]	100 to 1000	≤ 100	1000 to 10000	≤ 100	–	> 10000
Clc1ccccc1CCn1cnc(-c2cc(-c3nn[nH]n3)ccn2)c1 [Example 141, 2-[1-[2-(2-chlorophenyl)ethyl]imidazol-4-yl]-4-(2H-tetrazol-5-yl)pyridine]	100 to 1000	100 to 1000	1000 to 10000	≤ 100	–	> 10000
CCC(c1ccccc1)n1cnc(-c2cc(-c3nn[nH]n3)ccn2)c1 (stereo not shown) [Example 144, 2-[1-(1-phenylpropyl)imidazol-4-yl]-4-(2H-tetrazol-5-yl)pyridine]	100 to 1000	≤ 100	1000 to 10000	≤ 100	–	> 10000
CC(C)C(c1ccccc1)n1cnc(-c2cc(-c3nn[nH]n3)ccn2)c1 (stereo not shown) [Example 145, 2-[1-(2-methyl-1-phenylpropyl)imidazol-4-yl]-4-(2H-tetrazol-5-yl)pyridine]	100 to 1000	100 to 1000	1000 to 10000	≤ 100	–	> 10000
Cn1cnc(-c2cc(-c3nn[nH]n3)ccn2)c1-c1ccc(F)cc1OCC1CC1 [Example 150, 2-[5-[2-(cyclopropylmethoxy)-4-fluorophenyl]-1-methylimidazol-4-yl]-4-(2H-tetrazol-5-yl)pyridine]	100 to 1000	≤ 100	1000 to 10000	≤ 100	–	> 10000
FC(F)(F)c1cccc(Cn2cnc(-c3cc(-c4nn[nH]n4)ccn3)c2)c1Cl [Example 154, 2-[1-[[2-chloro-3-(trifluoromethyl)phenyl]methyl]imidazol-4-yl]-4-(2H-tetrazol-5-yl)pyridine]	100 to 1000	≤ 100	1000 to 10000	≤ 100	–	> 10000
